From paper PMC2992995, “Characterization and Online Detection of Surfactin Isomers Based on HPLC-MS^n Analyses and Their Inhibitory Effects on the Overproduction of Nitric Oxide and the Release of TNF-α and IL-6 in LPS-Induced Macrophages” (Marine Drugs, 2010)

Key:
Type in all cases: cell-based, murine
[1] = test system: NO production induced by LPS in RAW264.7 cells; test: Inhibition of NO production induced by LPS (Griess nitrite assay); conditions: Mus musculus, LPS 1 μg/mL, 24 h, samples 1–30 μM, Griess reagent, means of four experiments
Description: (§1) RAW264.7 cells were incubated in RPMI 1640 medium supplemented with penicillin (100 U/mL), streptomycin (100 μg/mL) and 10% heat inactivated fetal bovine serum at 37 °C in a humidified incubator with 5% CO2.
Nitric oxide was determined by measuring the amount of nitrite in the cell culture supernatant, using Griess reagent (mixture of equal volume of reagent A and reagent B, (A): 1% sulphanilamide; (B): 0.1% naphthylethylene diamine dihydrochloride in 10% H3PO4). Hydrocortisone was used as positive control. RAW264.7 cells were treated by lipopolysaccharides (LPS, 1 μg/mL) with or without samples (1–9, 1–30 μM) for 24 h, then briefly centrifuged. 100 μL of the cell culture supernatant were mixed with 100 μL of Griess reagent, followed by incubation for 10 min at room temperature. The absorbance at 540 nm was measured and the inhibitory rates were calculated by using a standard calibration curve prepared from different concentrations of sodium nitrite.

[2] = test system: IL-6 production induced by LPS in RAW264.7 cells; test: Inhibition of IL-6 release induced by LPS (ELISA); conditions: LPS 1 μg/mL, 6 h, samples 1–30 μM, mouse IL-6 ELISA of culture supernatant, means of four experiments
Description: as §1
Cells were treated by LPS (1 μg/mL) with or without samples (1–9, 1–30 μM) for 6 h. 100 μL of the culture supernatant was taken out to determine the level of TNF-α and IL-6 using respective enzyme-linked immunosorbent assay kit according to the manufacturer’s recommendations. Hydrocortisone was used as positive control.

[3] = test system: TNF-α production induced by LPS in RAW264.7 cells; test: Inhibition of TNF-α release induced by LPS (ELISA); conditions: LPS 1 μg/mL, 6 h, samples 1–30 μM, mouse TNF-α ELISA of culture supernatant, means of four experiments
Description: as §1
[…] 100 μL of the culture supernatant was taken out to determine the level of TNF-α and IL-6 using respective enzyme-linked immunosorbent assay kit according to the manufacturer’s recommendations. Hydrocortisone was used as positive control.

IC50 [1]: 64.3 µM
IC50 [2]: 63.9 µM
IC50 [3]: 85.6 µM
Compound: C[C@]12CCC(=O)C=C1CC[C@@H]1[C@@H]2[C@@H](O)C[C@@]2(C)[C@H]1CC[C@]2(O)C(=O)CO [Hydrocortisone]
